From patent US20070122414A1, “Surface marker-directed cancer therapeutics” (Aurelium BioPharma Inc., priority 2005, published 2007)

System: SKOV3 ovarian tumor cells
Experiment: SKOV3 tumor xenograft in nude mice, relative tumor volume (Example 1)
Assay type: in vivo
Settings: SKOV3 tumors in nude mice; intravenous
Procedure: Starting on the first day of treatment, tumor growth was measured by […], and the volume of the xenograft was monitored every 4 days. […] Mice were then treated with vimentin-directed therapeutics. […] Taxol was obtained commercially from Sigma Corp. (St. Louis, Mo.).
All treatments were introduced by intravenous administration. Mice were then sacrificed and tumors excised for relative volume determinations.

For `CC(=O)O[C@H]1C(=O)[C@@]2(C)[C@H]([C@H](OC(=O)c3ccccc3)[C@]3(O)C[C@H](OC(=O)[C@H](O)[C@@H](NC(=O)c4ccccc4)c4ccccc4)C(C)=C1C3(C)C)[C@]1(OC(C)=O)CO[C@@H]1C[C@@H]2O` [taxol], the “tumor size/volume relative to other treatment groups” value was “smaller than tumors in mice treated with vehicle or isotypic control, but not as small as the tumors isolated from mice treated with anti-vimentin antibodies and taxol together”.
